In patent US8735140B2, “Preservation and composition of bioprocess algae for production of lipids, seedstock, and feed” (Kuehnle AgroSystems, Inc., priority 2008, dated 2014):

How the values were obtained:
Dunaliella cells = assay: Trehalose loading of Dunaliella, shelf storage and recovery in fresh medium; type: cell-based, D. salina; conditions: 0.5 and 1.0 M trehalose
Experimental: First, cells in log phase are spun down at 1500×g for 10 minutes. Supernatant is decanted and the pellet is gently re-suspended in a minimal volume of medium and placed in a 1 L flask. The cell count of the slurry is 1.776×10^8 cells/ml. Next, four 50 ml tubes are prepared with aliquots of 21 ml of slurry in each tube prior to re-suspension, in a defined extracellular concentration of α-trehalose (α-D-glycosyl-α-D-glycosylpyranoside, Hayashibara Co., in Melis medium at a salinity of 1.0 M NaCl (referred to as 1M Melis). The cells are then spun down again and the pellets are re-suspended in 200 ml of treatment medium, that is, 1M Melis with or without added trehalose. The four preservation treatments in 1M Melis are performed in the following four sets in triplicate: no trehalose ([…]), 0.5M trehalose, 1.0M trehalose, and 2.0M trehalose. The cell density after re-suspension is at 1.865×10^7 cells/ml. During the re-suspension of cell pellets in 1M Melis, 2.0M trehalose, the pellet is not completely broken apart, yielding visible clumps in the suspension. After the re-suspension, cells are transferred to 250 ml flasks and left on the shelf at a temperature of 23-27° C. and light Intensity <5 μE/m^2-sec, without any agitation or aeration. […]

Synechocystis KAS635 = assay: Trehalose preservation, pretreatment with 0.5M sorbitol and embedding in alginate mat; type: cell-based; conditions: for % viability after storage & rejuvenation / Cell recovery after storage, relative to control: 0M control = 100%; for Cell number after 21 weeks in storage & rejuvenation: 3 weeks rejuvenation; for Cell recovery after storage / Cell recovery after storage, relative to control: 21 weeks; for Growth after storage & rejuvenation: 21 weeks + 3 weeks rejuvenation
Experimental: (§1) Cells in 40 ml flask cultures are grown to mid-log phase with a density of between 3×10^6 and 3×10^7 cells/ml, and are centrifuged. Culture medium is removed after centrifugation, resulting in more concentrated algae cells. Cells are then re-suspended in ideal glass solution consisting of fresh culture medium and trehalose at a concentration of 0.1M, 0.3M, and 0.5M (dihydrate trehalose 100 from Hayashibara Co. Ltd, Okayama, Japan), respectively, and left overnight with mild agitation. Cells are centrifuged again to remove the ideal glass solution the next day, and are re-suspended in fresh or salt water without any nutrient. The cell density of the resulting suspension is determined prior to storage under the various treatments. (Some cells were also treated with a 0.5M sorbitol solution). In one specific embodiment, 2% (w/v) alginate solution (Sigma-Aldrich A-2033) and 3% CaCl2 solution (Sigma-Aldrich C1016) are prepared in salt water or fresh water medium as required by specific algae species, and autoclave sterilized. Then, 2.0 ml 2% alginate solution is pipetted into each well of a BD Falcon 12-well plate. 0.2 ml algae cell suspension is then pipetted into each well and the mixture is further stirred. The alginate-cell mixture is further sprayed with 3% CaCl2 solution in a sterile pump bottle, allowing the alginate to solidify. After solidification, plates are closed and placed under low light and at ambient temperature. After stored under the above preservation conditions for 5 months, algae cells can be rejuvenated by overlaying alginate/algae mixture with 3.0 ml sterile 5.0% NaPolyphosphate (Sigma Aldrich 305553) and allowing to the mixture sit overnight. The algae/alginate/NaPolyphosphate mixture is then removed from the 12-well plate, diluted with fresh medium (3 parts fresh medium to 1 part cell suspension) and placed under light. In one specific embodiment, cells are treated with trehalose solution at various concentrations and left overnight. Cells are centrifuged the next day to remove the trehalose solution, and then re-suspended in sterile 0.5M D-sorbitol (Fisher Scientific […]) dissolved in salt or fresh-water medium as required by specific algae species. Cells are left to stand for 2 hours with mild agitation. After 2 hours, cells are centrifuged again to remove the 0.5M sorbitol solution and re-suspended in fresh or salt-water medium. Cells are counted after the re-suspension. Cell viability is determined by comparing the cell growth in control set with the experimental set. Specifically, cell counts are performed on all samples. The averaged density value (in cells per ml) for all the cultures after treatment is defined as “rejuvenation cell count.” In some samples, the percent recovery of cells immediately after storage is also determined. The formulae are illustrated as follows: Growth=(rejuvenation cell count)/(initial cell count) Cell recovery after storage=(cell density after storage)/(initial cell density), with controls set at 100% cell recovery. Viability after storage and rejuvenation in nutrient medium=(Growth of treatment)/(Growth of control)×100%, with controls set at 100% viability

Chlorella KAS503 = assay: as above; type: cell-based; conditions: for % viability after storage & rejuvenation / Cell recovery after storage, relative to control: 0M control = 100%; for Cell number after 21 weeks in storage & rejuvenation: 3 weeks rejuvenation; for Growth after storage & rejuvenation: 21 weeks + 3 weeks rejuvenation; for Cell recovery after storage, relative to control: 21 weeks
Experimental: as §1

Chlorella KAS603 = assay: as above; type: cell-based; conditions: for % viability after storage & rejuvenation / Cell recovery after storage, relative to control: 0M control = 100%; for Cell number after 21 weeks in storage & rejuvenation: 3 weeks rejuvenation; for Growth after storage & rejuvenation: 21 weeks + 3 weeks rejuvenation
Experimental: as §1

[1] = 0.1M trehalose in BG11, 0.5M sorbitol pretreatment
[2] = 0.3M trehalose in BG11, 0.5M sorbitol pretreatment
[3] = 0.5M trehalose in BG11, 0.5M sorbitol pretreatment
[4] = 0.1M trehalose in F/2, 0.5M sorbitol pretreatment
[5] = 0.3M trehalose in F/2, 0.5M sorbitol pretreatment
[6] = 0.5M trehalose in F/2, 0.5M sorbitol pretreatment
[7] = 0.1M trehalose in F/2, 0.5M sorbitol pretreatment, 21 weeks

With `OC[C@H]1O[C@H](O[C@H]2O[C@H](CO)[C@@H](O)[C@H](O)[C@H]2O)[C@H](O)[C@@H](O)[C@@H]1O` [trehalose, α-D-glycosyl-α-D-glycosylpyranoside] the Functional recovery (Dunaliella cells; 4.5-week period, FIG. 3) was “exhibit functional recovery”, the Functional recovery (Dunaliella cells; 8-week period, no cell growth observed) was “negligible functional recovery” and the “Cell number after 21 weeks in storage” value (Synechocystis KAS635; [1]) was 1.275 × 10^7. The “% viability after storage & rejuvenation” value (Synechocystis KAS635; [1]) was “(87%)”, the “Cell number after 21 weeks in storage & rejuvenation” value (Synechocystis KAS635; [1]) was 2.436 × 10^7 cells/ml and the “Cell recovery after storage” value (Synechocystis KAS635; [1]) was 0.39. The “Growth after storage & rejuvenation” value (Synechocystis KAS635; [1]) was 1.91, the “Cell recovery after storage, relative to control” value (Synechocystis KAS635; [1]) was “(106%)” and the “Cell number after 21 weeks in storage” value (Synechocystis KAS635; [2]) was 1.421 × 10^7. The “% viability after storage & rejuvenation” value (Synechocystis KAS635; [2]) was “(144%)”, the “Cell number after 21 weeks in storage & rejuvenation” value (Synechocystis KAS635; [2]) was 4.495 × 10^7 cells/ml and the “Cell recovery after storage” value (Synechocystis KAS635; [2]) was 0.42. For the same compound, the “Growth after storage & rejuvenation” value (Synechocystis KAS635; [2]) was 3.16, the “Cell recovery after storage, relative to control” value (Synechocystis KAS635; [2]) was “(114%)” and the “Cell number after 21 weeks in storage” value (Synechocystis KAS635; [3]) was 2.023 × 10^7. The “% viability after storage & rejuvenation” value (Synechocystis KAS635; [3]) was “(80%)”, the “Cell number after 21 weeks in storage & rejuvenation” value (Synechocystis KAS635; [3]) was 3.560 × 10^7 cells/ml and the “Cell recovery after storage” value (Synechocystis KAS635; [3]) was 0.72. The “Growth after storage & rejuvenation” value (Synechocystis KAS635; [3]) was 1.76, the “Cell recovery after storage, relative to control” value (Synechocystis KAS635; [3]) was “(195%)” and the “Cell number after 21 weeks in storage” value (Chlorella KAS503; [4]) was 1.163 × 10^7. For the same compound, the “% viability after storage & rejuvenation” value (Chlorella KAS503; [4]) was “(51%)”, the “Cell number after 21 weeks in storage & rejuvenation” value (Chlorella KAS503; [4]) was 1.03 × 10^7 cells/ml and the “Growth after storage & rejuvenation” value (Chlorella KAS503; [4]) was 0.89. The “Cell recovery after storage, relative to control” value (Chlorella KAS503; [4]) was “(227%)”, the “Cell number after 21 weeks in storage” value (Chlorella KAS503; [5]) was 8.097 × 10^6 and the “% viability after storage & rejuvenation” value (Chlorella KAS503; [5]) was “(148%)”. The “Cell number after 21 weeks in storage & rejuvenation” value (Chlorella KAS503; [5]) was 2.080 × 10^7 cells/ml, the “Growth after storage & rejuvenation” value (Chlorella KAS503; [5]) was 2.57 and the “Cell recovery after storage, relative to control” value (Chlorella KAS503; [5]) was “(226%)”. For the same compound, the “Cell number after 21 weeks in storage” value (Chlorella KAS503; [6]) was 8.589 × 10^6, the “% viability after storage & rejuvenation” value (Chlorella KAS503; [6]) was “(132%)” and the “Cell number after 21 weeks in storage & rejuvenation” value (Chlorella KAS503; [6]) was 1.959 × 10^7 cells/ml. For the same compound, the “Growth after storage & rejuvenation” value (Chlorella KAS503; [6]) was 2.28, the “Cell recovery after storage, relative to control” value (Chlorella KAS503; [6]) was “(231%)” and the “Cell number after 21 weeks in storage” value (Chlorella KAS603; [4]) was 1.920 × 10^7. For the same compound, the “% viability after storage & rejuvenation” value (Chlorella KAS603; [4]) was “(105)%”, the “Cell number after 21 weeks in storage & rejuvenation” value (Chlorella KAS603; [4]) was 3.102 × 10^7 cells/ml and the “Cell recovery after storage” value (Chlorella KAS603; [7]) was 1.76. For the same compound, the “Growth after storage & rejuvenation” value (Chlorella KAS603; [4]) was 1.62, the “Cell recovery after storage, relative to control” value (Chlorella KAS603; [7]) was “(61%)” and the “Cell number after 21 weeks in storage” value (Chlorella KAS603; [5]) was 2.378 × 10^7. For the same compound, the “% viability after storage & rejuvenation” value (Chlorella KAS603; [5]) was “(139)%”, the “Cell number after 21 weeks in storage & rejuvenation” value (Chlorella KAS603; [5]) was 5.099 × 10^7 cells/ml and the “Growth after storage & rejuvenation” value (Chlorella KAS603; [5]) was 2.14. The “Cell recovery after storage, relative to control” value (Chlorella KAS603; 0.3M trehalose in F/2, 0.5M sorbitol pretreatment, 21 weeks) was “(123%)”, the “Cell number after 21 weeks in storage” value (Chlorella KAS603; [6]) was 2.113 × 10^7 and the “% viability after storage & rejuvenation” value (Chlorella KAS603; [6]) was “(160%)”. The “Cell number after 21 weeks in storage & rejuvenation” value (Chlorella KAS603; [6]) was 5.197 × 10^7 cells/ml, the “Growth after storage & rejuvenation” value (Chlorella KAS603; [6]) was 2.46 and the “Cell recovery after storage, relative to control” value (Chlorella KAS603; 0.5M trehalose in F/2, 0.5M sorbitol pretreatment, 21 weeks) was “(155%)”.
